Entries after “also recorded” stand apart in the source; their conditions may differ. Bridges are numbered along the chain shown (N, C = ends). Where no end group is shown, it is not given here. [ ]: non-standard residue; d: D form. Cit = NC(=O)NCCC[C@H](N)C(=O)O
How the values were obtained:
[1] = tested on: serum IgG of RA patients, disease controls and healthy controls; assay: ELISA for IgG antibodies to cyclic α-enolase peptides, UK cohort sera; type: binding, human; settings: for % positive, RA (n = 102): UK cohort RA sera; for % positive, RA (n = 102) / % positive, Disease controls (n = 110) / % positive, Healthy controls (n = 92): cut-off OD450 = 0.1; for % positive, Disease controls (n = 110) / % positive, Healthy controls (n = 92) / sensitivity for RA: UK cohort; for IgG antibody levels / reactivity (OD450) in RA sera / sensitivity for RA: 102 RA patients; for IgG antibody levels / reactivity (OD450) in RA sera: OD450 (peptide)-OD450 (background)
From the text: (§1) Serum samples were obtained with informed consent and ethical approval from 102 patients with RA and 92 (or 110 patients for the results generally shown in FIGS. 9 to 16) patients with other arthritidies (including systemic lupus erythematosus (n=32), Sjogrens syndrome (n=31), psoriatic arthritis (n=5), Behçet's syndrome (n=18; FIGS. 9 to 16) and miscellaneous other rheumatic diseases (n=24). 92 control serum samples were obtained from healthy volunteers. An additional cohort of 24 patients with RA undergoing treatment with either methotrexate (MTX) alone (n=13) or methotrexate in combination with Infliximab (INF) (n=11) were collected before treatment as well as 6, 18 and 52 weeks post treatment. Disease activity score (DAS 28), erythrocyte sedimentation rate (ESR) and C-reactive protein (CRP) were measured for each patient at the same time points, i.e. 0, 6, 18 an 52 weeks post treatment. All patients attended the Rheumatology Clinic at Charing Cross Hospital, London. An independent cohort from the US included serum samples from 81 RA patients, taken at baseline in a clinical trial at the Omaha Veterans Affairs Medical Centre, University of Nebraska, USA, and 82 serum samples from healthy volunteers. All RA patients met the American College of Rheumatology (ACR) classification criteria (43).
Fifteen cyclic 15 to 23-mer peptides were synthesised at Cambridge Research Biochemicals (Cleveland, UK). The peptide sequences corresponded to amino acid sequences in human α-enolase (SwissProt accession number P06733) or P. gingivalis enolase (SwissProt accession number AAQ66821), with the addition of cysteine residues at the amino- and carboxy-termini and the exchange of citrulline for arginine residues at certain positions, as shown in Tablet and Table 2 below.
(§2) 96-well plates (Maxisorp; Nunc, Roskilde, Denmark) were coated with α-enolase peptides at 10 μg/ml (diluted in a 50 mM carbonate buffer, pH 9.6), or with carbonate buffer alone, and incubated over night at 4° C. Wells were washed with PBS-Tween (0.05%) and blocked with 2% BSA (diluted in PBS) for 3 hours at room temperature. Sera were diluted 1:50 in RIA-buffer (10 mM Tris, 1% BSA, 350 mM NaCl, 1% Triton-X, 0.5% Na-deoxychlate, 0.1% SDS) supplemented with 10% FCS, added in duplicates and incubated for 1.5 hour at room temperature. Plates were washed as described above and incubated with peroxidase-conjugated mouse anti-human IgG (Hybridoma Reagent Laboratory, Baltimore, USA) (diluted 1:1000 in RIA-buffer, 10% FCS) for 1 hour at room temperature. After a final wash (PBS-Tween, 0.05%), bound antibodies were detected with TMB substrate (KPL, Maryland, USA). The reaction was stopped by the addition of 1M H2SO4 and absorbance measured at 450 nm in a Multiscan Ascent microplate reader (Thermo Labsystems). A control serum was included on all plates to correct for plate-to-plate variation. Background OD450 (wells coated with only carbonate buffer) was subtracted from peptide OD450 for every serum tested. Values above 0.1 were taken as positive. ELISA on the US serum samples were performed in a similar manner, but with 2% BSA in carbonate buffer as background, and with an OD cut-off of 0.2 for positive samples. Anti-CCP antibody status was analysed using the CCP2 kit (Eurodiagnostica, Malmo, Sweden), according to the manufacturer's instructions.

[2] = tested on: anti-CEP-1 antibodies in anti-CEP-1 positive RA sera; assay: Liquid phase inhibition of binding to CEP-1-coated plates; design: species or system human; settings: six anti-CEP-1 positive RA sera pre-incubated with 0, 1, 10 and 100 μg/ml peptide
Protocol: Inhibition experiments were performed in liquid phase on six anti-CEP-1 positive RA serum samples or on solid phase using serum from nine double positive (anti-CEP-1 and CCP positive) RA patients. Sera were either pre-incubated for 2 hours in RIA-buffer containing increasing concentrations (0, 1, 10 and 100 μg/ml) of CEP-1, control peptide 1D, peptide 4, peptide 7, peptide 9 or peptide 11, or pre-absorbed on plates coated with CEP-1, carbonate buffer alone or pre-absorbed on commercial CCP2 plates. To eliminate antigen-antibody complexes, the liquid phase mixtures were centrifuged at 13 000 rpm, for 15 minutes, before the supernatants were transferred to CEP-1-coated plates and assessed as described above Inhibition of binding to CEP-1, for serum samples pre-absorbed to CCP, was calculated in relation to the maximum inhibition, which by definition was set to 100% for samples pre-incubated with CEP-1.

[3] = tested on: serum IgG of RA patients and healthy controls (US cohort); assay: anti-CEP-1 antibody ELISA, independent US cohort; type: binding, human; settings: cut-off 98th percentile of controls
From the text: as §1
as §2, with “ELISA on the US serum samples were performed in a similar manner, but with 2% BSA in carbonate buffer as background, and with an OD cut-off of 0.2 for positive samples.” left out, “instructions. […]” for “instructions.”

Substance | % positive, RA (n = 102) [1] | % positive, Disease controls (n = 110) [1] | % positive, Healthy controls (n = 92) [1] | inhibition of antibody binding to CEP-1-coated plates [2] | further results
cakynqll-X-ieeelgskac (CAKYNQLL[Cit]IEEELGSKAC; disulfide 1-19 (inferred); listed as Homo sapiens) [Peptide 8, human α-enolase aa 405-421] | 7% | 4% | 0% |  | 
cekgvply-X-hiadlagnsec (CEKGVPLY[Cit]HIADLAGNSEC; disulfide 1-20 (inferred); listed as Homo sapiens) [Peptide 4, human α-enolase aa 125-142] | 16% | 2% | 2% | no inhibition | inhibition of antibody binding to CEP-1-coated plates ([2]; listed as peptide 4): did not result in decreased antibody binding
ciqvvgddltvtnpk-X-iakac (CIQVVGDDLTVTNPK[Cit]IAKAC; disulfide 1-21 (inferred); listed as Homo sapiens) [Peptide 10, human α-enolase aa 313-331] | 6% |  | 1% |  | 
ckfag-X-nf-X-nplakc (CKFAG[Cit]NF[Cit]NPLAKC; disulfide 1-15 (inferred); listed as Homo sapiens) [Peptide 9, human α-enolase aa 422-434] | 15% | 1% | 1% | no inhibition | inhibition of antibody binding to CEP-1-coated plates ([2]; listed as peptide 9): did not result in decreased antibody binding
ckiha-R-eifds-R-gnptvec (CKIHAREIFDSRGNPTVEC; listed as Homo sapiens) [Peptide 1D, arginine containing control peptide, aa 5-21] |  | 2% | 3% | did not result in decreased antibody binding; also recorded: no inhibition | IgG antibody levels / reactivity (OD450) in RA sera [1]: low IgG-levels; also recorded: low reactivity; IgG antibody levels / reactivity (OD450) in RA sera ([1]; listed as arginine-containing control peptide): low degree of reactivity; IgG antibody levels / reactivity (OD450) in RA sera ([1]; listed as peptide 1D): low IgG-levels; sensitivity for RA [1]: about 4.9%
ckiha-R-eifds-X-gnptvec (CKIHAREIFDS[Cit]GNPTVEC; disulfide 1-19 (inferred); listed as Homo sapiens) [Peptide 1B] | 40% |  |  |  | IgG antibody levels / reactivity (OD450) in RA sera [1]: higher antibody levels; sensitivity for RA [1]: higher sensitivity
ckiha-X-eifds-R-gnptvec (CKIHA[Cit]EIFDSRGNPTVEC; disulfide 1-19 (inferred); listed as Homo sapiens) [Peptide 1C] | 20% |  |  |  | sensitivity for RA [1]: about 20%
ckiig-X-eilds-X-gnptvec (CKIIG[Cit]EILDS[Cit]GNPTVEC; disulfide 1-19 (inferred); listed as Homo sapiens) [1A P. gingivalis, P. gingivalis enolase version of CEP-1, X = citrulline] | 34% |  |  |  | % healthy controls positive, US cohort (n=82) [3]: 2%
cnf-X-eam-X-igaevyhnlknc (CNF[Cit]EAM[Cit]IGAEVYHNLKNC; disulfide 1-20 (inferred); listed as Homo sapiens) [Peptide 5, human α-enolase aa 177-194] | 11% | 4% | 3% |  | 
cnpk-X-iakavnekscncllc (CNPK[Cit]IAKAVNEKSCNCLLC; also: cyclic via terminal Cys, bond and pairing not given here; listed as Homo sapiens) [Peptide 11, human α-enolase aa 324-341] | 18% |  | 0% | no inhibition | inhibition of antibody binding to CEP-1-coated plates ([2]; listed as peptide 11): did not result in decreased antibody binding
cvdlftskglf-X-aavpsgc (CVDLFTSKGLF[Cit]AAVPSGC; disulfide 1-19 (inferred); listed as Homo sapiens) [Peptide 2, human α-enolase aa 22-38] | 10% | 0% | 2% |  | 
cyealel-X-dndkt-X-ymgkgvskc (CYEALEL[Cit]DNDKT[Cit]YMGKGVSKC; disulfide 1-23 (inferred); listed as Homo sapiens) [Peptide 3, human α-enolase aa 44-64] | 15% | 2% | 0% |  | 
